Assay results from patent publication US11884710B2, “Peptide compounds and methods of use in wound healing” (priority 2013, dated 2024).
Square brackets hold non-standard residues; d marks the D form. Ends that are not written are not given here. PEG2 = NCCOCCOCCC(=O)O

What was measured:
[1] = tested on: P. aeruginosa (ATCC 27853); assay: Mouse model of Pseudomonas (bacterial) keratitis; assay type: in vivo
Method: A circular wound was created on the mouse cornea by removing the epithelium and infected with 10^5 colony forming units (CFU) of P. aeruginosa (ATCC® 27853™ (American Type Culture Collection, Manassas, Va.)). Infected wounds were treated with saline (0.9% sodium chloride, vehicle control) or saline containing indicated concentrations of peptide every 15 minutes for 2 hours, then every 30 minutes for 3 hours on the first day. Infected wounds were treated twice on the second day and once on the third day. Mice were killed at 48 hours post-infection, and CFU/eye were quantified. The means were plotted and are representative of 5 to 9 mice per group. Mann Whitney test was performed for each group as compared to the saline control group. *P=0.014. In compound names such as BCC02-5RMP used herein, “R” represents arginine, and “MP” represents a small PEG molecule as defined elsewhere herein (such as, for example but not by way of limitation, “AEEP”).
(§1) A circular wound was created on the mouse cornea by removing the epithelium, and the wound was infected with 10^5 CFU of P. aeruginosa (ATCC® 27853™ (American Type Culture Collection, Manassas, Va.)). Infected wounds were treated with saline or saline containing indicated concentrations (2, 5, 10, and 20 mg/ml) of peptide every 30 minutes for 6 hours on the first day. Infected wounds were treated twice on the second day and once on the third day. Mice were killed at 48 hours post-infection, and the CFU/eye were quantified. The means are plotted and are representative of 5 mice per group. Mann Whitney test was performed for each group as compared to the saline control group. *P=0.015 and **P=0.097.
as §1, with “representative of 4 to 5 mice” for “representative of 5 mice”, “control group.” for “control group. *P=0.015 and **P=0.097.”
as §1, with “group. **P=0.0079 by” for “group.”, “test” for “test was performed for each group”, “group.” for “group. *P=0.015 and **P=0.097.”
A circular wound (2 mm) was created on the mouse cornea by removing the epithelium and infecting the wound with 10^5 CFU of P. aeruginosa (ATCC® 27853™ (American Type Culture Collection, Manassas, Va.)). Infected wounds were treated with saline or saline containing indicated concentrations of peptide every 15 minutes for 2 hours, then every 30 minutes for 3 hours on the first day. […] Mice were killed at 48 hours post-infection, and the colony forming units per eye (CFU/eye) were quantified. […]

[2] = tested on: Pseudomonas aeruginosa ATCC 27853; assay: In vitro bactericidal assay, P. aeruginosa ATCC 27853 (FIGS. 12-14); assay type: cell-based; conditions: FIG. 14; pH 5.5; 180 minutes; even at the lower concentration (75 μg/ml)
Method: Each of the test peptides was used at 25, 12.5 6.25, and 3.12 μM. The gentamicin was used at 4 μg/ml. 1×10^6/ml Pseudomonas aeruginosa ATCC® 27853™ (American Type Culture Collection, Manassas, Va.) were incubated with the peptides, negative buffer control (tryptone saline), and positive control gentamicin for 180 minutes at pH 7.2. 50 μl aliquots were plated out on agar plates and incubated overnight. Colony forming units were counted after overnight incubation and CFU/ml calculated.
Each of the test peptides was used at 25, 12.5, 6.25, and 3.12 μM. The gentamicin was used at 4 μg/ml. 1×10^6/ml Pseudomonas aeruginosa ATCC® 27853™ (American Type Culture Collection, Manassas, Va.) were incubated with the peptides, negative buffer control (tryptone saline), and positive control gentamicin for 180 minutes at pH 5.5. 50 μl aliquots were plated out on agar plates and incubated overnight. Colony forming units were counted after overnight incubation and CFU/ml calculated.
FIG. 14 is a comparison of bactericidal activity of CAP37 peptides 120-146WR (SEQ ID NO:30), 120-146WH (SEQ ID NO:31), 120-146QR (SEQ ID NO:28), 120-146QH (SEQ ID NO:29), 120-146QR-5RMP (SEQ ID NO:32), and 120-146QH-5RMP (SEQ ID NO:33) for Pseudomonas aeruginosa ATCC® 27853™ (American Type Culture Collection, Manassas, Va.). 1×10^6/ml Pseudomonas aeruginosa ATCC® 27853™ were incubated with the peptides at 150, 75, and 37.5 μg/ml and negative buffer control (tryptone saline) for 180 minutes at pH 5.5. 50 μl aliquots were plated out on agar plates and incubated overnight. Colony forming units were counted after overnight incubation and CFU/ml calculated.
For FIGS. 10-13, in vitro bactericidal assays were performed using a starting inoculum of 1×10^6 CFU/ml of the bacterial suspension. The CFU remaining at the end of the 60-180 minute incubation was determined, and the data was plotted as log reduction in CFU/ml.
In particular, each of the test peptides (CAP37 peptides 120-146WR, 120-146WH, and 95-122 (SEQ ID NOS:30, 31, and 26, respectively)) was used at 25, 12.5, 6.25, and 3.12 μM. Gentamicin was used at 4 μg/ml. 1×10^6/ml Acinetobacter baumannii ATCC® BAA-747™ or Pseudomonas aeruginosa ATCC® 27853™ (American Type Culture Collection, Manassas, Va.) were incubated with the peptides, negative buffer control (tryptone saline), and positive control gentamicin at pH 5.5 or 7.2. A 60 minute incubation was used for Acinetobacter baumannii ATCC® BAA-747™, while a 180 minute incubation was used for Pseudomonas aeruginosa ATCC® 27853™. 50 μl aliquots were plated out on agar plates and incubated overnight. Colony forming units were counted after overnight incubation and CFU/ml calculated.
For FIG. 14, 1×10^6/ml Pseudomonas aeruginosa ATCC® 27853™ were incubated with each of the test peptides (CAP37 peptides 120-146WR, 120-146WH, 120-146QR, 120-146QH, 120-146QR-5RMP, and 120-146QH-5RMP (SEQ ID NOS:30, 31, 28, 29, 32, and 33, respectively)) at 150, 75, and 37.5 μg/ml, or negative buffer control (tryptone saline), for 180 minutes at pH 5.5. 50 μl aliquots were plated out on agar plates and incubated overnight. Colony forming units were counted after overnight incubation and CFU/ml calculated.

Substance: (AEEP)-(AEEP)-RRRRGTRCQVAGWGSQRSGGRLSRFPRFVNVR ([PEG2][PEG2]RRRRGTRCQVAGWGSQRSGGRLSRFPRFVNVR) [120-146QR-5RMP]
- mice with no viable bacteria in the eye after treatment ([1]; the 10 and 20 mg/ml groups together): Six of the 10 mice
- CFU/eye vs saline, in words ([1]; topical doses of 10 and 20 mg/ml, 48 hours post-infection): significantly reduced the CFU/eye
- reduction in CFU [2]: ~6 log
